How the values were obtained:
[1] = target: ANXA1 on human SMC-derived EVs (Homo sapiens, UniProt P04083); details: 0.48 mmol/L EDTA in PBS, 30 minutes at 37° C.
Procedure: (§1) ANXA1 EVs surface localization was assessed by isolating human SMC and VIC EVs. 10 mL of conditioned media was centrifuged at 100,000 g for 40 minutes, and the resulting EVs pellet was resuspended in PBS or PBS containing 0.48 mmol/L EDTA and incubated for 30 minutes at 37° C. EVs were pelleted a second time at 100,000 g for 40 minutes. The supernatant was collected, and the pellet was resuspended in 100 μl PBS. Samples were incubated with 6×-loading buffer (Boston Bioproducts) and boiled for 10 minutes, prior to analysis by western blot. ANXA1 released into the supernatant was assessed as being on the surface of EVs.

human ANXA1 = target: T1, human ANXA1 (Homo sapiens, UniProt P04083); assay: Vesicle tethering assay (turbidity of extrusion generated phosphatidylserine vesicles); format: biochemical
T1 construct: purchased R&D Systems
T1 sequence (P04083 1-346): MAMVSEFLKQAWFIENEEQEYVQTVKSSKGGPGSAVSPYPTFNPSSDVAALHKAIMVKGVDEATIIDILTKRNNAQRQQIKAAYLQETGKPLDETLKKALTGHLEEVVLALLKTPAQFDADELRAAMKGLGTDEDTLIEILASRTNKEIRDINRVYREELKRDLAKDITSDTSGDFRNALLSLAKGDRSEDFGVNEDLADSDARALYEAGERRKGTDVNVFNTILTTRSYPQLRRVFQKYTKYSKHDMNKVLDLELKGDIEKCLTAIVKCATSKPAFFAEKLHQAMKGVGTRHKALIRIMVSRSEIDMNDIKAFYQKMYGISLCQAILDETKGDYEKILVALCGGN
Procedure: Vesicle Tethering Assay. Vesicle tethering was assessed by using a previously reported protocol (19) with modifications to adjust to a 96-well plate reader format. Large unilaminar vesicles of ˜100 nm in diameter were generated by filter extrusion. Briefly, 2.5 mg of phosphatidylserine (Avanti Polar Lipids) was solubilized in 1 mL of buffer containing: 10 mmol/L Hepes (Sigma, St. Louis, Mo.), 100 mmol/L NaCl (Sigma), 100 μmon ethylenediaminetetraacetic acid (Boston BioProducts, Ashland, Mass.), pH 6. The lipid mixture was run through an extruder containing 0.1 μm polycarbonate membranes (Avanti Polar Lipids) ten times, during which point the lipid mixture went from cloudy to clear in appearance. Vesicles were assessed for correct size and abundance prior to use by NanoSight nanoparticle tracking analysis. […] 27 jd of extrusion generated vesicles were added to each well and vesicle aggregation was measured at wavelength 350 on a SpectraMax M5 96-well plate reader (Molecular Devices, San Jose, Calif.). For calcium chelation, 0.48 mmol/L ethylenediaminetetraacetic acid was incubated with 1 μg human ANXA1 protein for five minutes at room temperature prior to adding the extrusion generated vesicles, after which the reaction was carried out for 20 minutes and then aggregation was determined on a plate reader. […]

[2] = target: ANXA1 on human VIC-derived EVs (Homo sapiens, UniProt P04083); details: 0.48 mmol/L EDTA in PBS, 30 minutes at 37° C.
Procedure: as §1

[3] = target: dynamin-related protein 1 (DRP1) (Homo sapiens, UniProt O00429); details: OM; cited from earlier work
ANXA1 loading on EVs = ANXA1 loading on EVs derived from SMCs treated with mdivi-1 (western blot); format: cell-based; details: human SMCs in OM, 14 days
Procedure: Primary Cell Culture. Primary human coronary artery SMCs were obtained from Promocell (Heidelberg, Germany) and expanded in SMC Growth Medium 2 (Promocell) supplemented with epidermal growth factor (0.5 ng/mL), insulin (5 μg/mL) basic fibroblast growth factor- B (2 ng/mL), and 5% fetal bovine serum. Primary human VICs were obtained from human aortic valve tissue using collagenase digestion (28, 30). Tissue-derived SMCs were confirmed as alpha smooth muscle actin-positive by FACS (30). Tissue-derived VICs were confirmed as vimentin positive by immunohistochemistry (28). Cells were cultured at 37° C. (5% CO2, 90% humidity) and used between passages 1 and 5. […] Tissue non-specific alkaline phosphatase (TNAP) activity was analyzed after 14 days in culture using whole cell lysates and the TNAP enzyme activity assay (BioVision, Inc., Milpitas, Calif.), according to the manufacturer's protocol. Calcification was analyzed in cells after 21 days in culture by incubating culture wells with OsteoSense680 (1:100), near-infrared based bisphosphonate calcium tracer, for 24 hours at 37° C. […]
RNA and Protein Analysis. […] ANXA1 EVs surface localization was assessed by isolating human SMC and VIC EVs. […]

[4] = Annexin vesicle binding (confocal, swelling generated phosphatidylserine vesicles); details: 2 μg ANXA1-GFP, 1 mmol/L CaCl2, five minutes
Procedure: Annexin Vesicle Binding. Giant unilamellar vesicles were generated using a previously described protocol (50) with some modifications. Briefly, for the confocal-based ANXA1 vesicle binding assay, 12 mm diameter cover glass circles were coated with 5% polyvinyl alcohol (Millipore, Burlington, Mass.) in water and left to dry overnight. Dried slides were then coated with 20 μl of 10 mg/mL phosphatidylserine (Avanti Polar Lipids, Alabaster, Ala.) in chloroform containing 0 1% DiR′; DiIC18(7) 1,1′-Dioctadecyl-3,3,3′,3′-Tetramethylindotricarbocyanine Iodide) (Fisher Scientific) and dried under vacuum. 1 mL of tris buffer (pH 6) was added to cover the coated cover glass circle in a 24-well plate, and giant unilaminar vesicles were formed by swelling at room temperature for 1 hour. Vesicles were detached from the cover glass by gently tapping the plate directly beneath the slide. ANXA1 tagged green fluorescent protein (ANXA1-GFP) was obtained by transfecting HEK-293 cells (ATCC, Manassas, Va.) with human ANXA1-GFP plasmid (OriGene, Rockville, Md., #RG201569). […] GFP laser settings were adjusted such that no GFP signal was detected in samples without ANXA1-GFP added.

Sequence of dynamin-related protein 1 (DRP1) (O00429 whole entry): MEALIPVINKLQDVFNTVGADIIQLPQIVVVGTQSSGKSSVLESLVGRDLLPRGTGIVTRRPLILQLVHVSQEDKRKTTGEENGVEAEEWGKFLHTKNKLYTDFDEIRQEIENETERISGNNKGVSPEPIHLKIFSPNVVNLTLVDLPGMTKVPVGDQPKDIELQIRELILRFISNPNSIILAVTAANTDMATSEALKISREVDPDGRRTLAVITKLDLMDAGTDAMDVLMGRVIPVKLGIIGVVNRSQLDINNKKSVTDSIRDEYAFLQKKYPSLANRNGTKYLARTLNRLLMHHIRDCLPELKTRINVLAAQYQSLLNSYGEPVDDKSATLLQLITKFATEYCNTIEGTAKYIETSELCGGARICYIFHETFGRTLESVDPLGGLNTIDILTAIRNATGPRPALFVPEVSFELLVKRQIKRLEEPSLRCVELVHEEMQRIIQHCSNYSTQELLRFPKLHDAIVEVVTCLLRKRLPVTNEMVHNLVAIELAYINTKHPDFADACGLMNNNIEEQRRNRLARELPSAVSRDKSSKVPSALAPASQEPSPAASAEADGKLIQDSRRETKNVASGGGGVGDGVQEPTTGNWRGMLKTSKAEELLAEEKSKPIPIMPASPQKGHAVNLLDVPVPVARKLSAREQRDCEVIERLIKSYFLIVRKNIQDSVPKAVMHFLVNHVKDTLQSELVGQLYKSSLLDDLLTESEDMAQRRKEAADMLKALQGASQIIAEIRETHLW

For `O=C(O)CN(CCN(CC(=O)O)CC(=O)O)CC(=O)O` [EDTA, ethylenediaminetetraacetic acid], the “ANXA1 release from EVs” value [1] was “increased”, the ANXA1-mediated vesicle aggregation (human ANXA1; 0.48 mmol/L EDTA, 1 μg human ANXA1 protein, 20 minutes) was “attenuated” and the “ANXA1 release from EVs” value [2] was “increased”.

In the case of `COc1cc(-n2c(S)nc3ccccc3c2=O)c(Cl)cc1Cl` [mdivi-1], the “SMC and VIC calcification” value [3] is listed as “suppressed”, the intracellular calcium storage [3] is listed as “increased” and the mitochondrial fragmentation [3] is listed as “reduced”. The “increased ANXA1 loading on EVs in OM” value (ANXA1 loading on EVs) was “suppressed”.

B1: human ANXA1 protein: recombinant human ANXA1 (R&D Systems) (protein)
chain: AMVSEFLKQAWFIENEEQEYVQTVKSSKGGPGSAVSPYPTFNPSSDVAALHKAIMVKGVDEATIIDILTKRNNAQRQQIKAAYLQETGKPLDETLKKALTGHLEEVVLALLKTPAQFDADELRAAMKGLGTDEDTLIEILASRTNKEIRDINRVYREELKRDLAKDITSDTSGDFRNALLSLAKGDRSEDFGVNEDLADSDARALYEAGERRKGTDVNVFNTILTTRSYPQLRRVFQKYTKYSKHDMNKVLDLELKGDIEKCLTAIVKCATSKPAFFAEKLHQAMKGVGTRHKALIRIMVSRSEIDMNDIKAFYQKMYGISLCQAILDETKGDYEKILVALCGGN
With B1 the “vesicle aggregation (turbidity)” value (human ANXA1; 0 up to 5 μg recombinant ANXA1, 1 mmol/L CaCl2, ~150 nm phosphatidylserine vesicles) was “time- and concentration-dependent vesicle aggregation”.

B2: GFP-tagged ANXA1: green fluorescent protein tagged human ANXA1 immunopurified from transfected HEK-293 cells (protein)
chain: MAMVSEFLKQAWFIENEEQEYVQTVKSSKGGPGSAVSPYPTFNPSSDVAALHKAIMVKGVDEATIIDILTKRNNAQRQQIKAAYLQETGKPLDETLKKALTGHLEEVVLALLKTPAQFDADELRAAMKGLGTDEDTLIEILASRTNKEIRDINRVYREELKRDLAKDITSDTSGDFRNALLSLAKGDRSEDFGVNEDLADSDARALYEAGERRKGTDVNVFNTILTTRSYPQLRRVFQKYTKYSKHDMNKVLDLELKGDIEKCLTAIVKCATSKPAFFAEKLHQAMKGVGTRHKALIRIMVSRSEIDMNDIKAFYQKMYGISLCQAILDETKGDYEKILVALCGGN
modifications: left off: large carriers
notes: green fluorescent protein tagged human ANXA1 immunopurified from transfected HEK-293 cells
In the case of B2, the “ANXA1 localization on tethered vesicles” value [4] is reported as “enriched ANXA1 at tethered vesicle membrane contact sites”.
